# Experiments:
# [1] = system: skin removed from the back of a hairless mouse; test: Evaluation of skin penetrability, amount of α-tocopherol in the skin; format: in vitro ADME; conditions: 4 hours at 37° C.; for amount of α-tocopherol in the skin: 0.50 (mass %) in Dulbecco's MEM medium, HPLC, not added: 10
# [2] = system: skin removed from the back of a hairless mouse; test: Evaluation of skin penetrability, amount of γ-tocopherol in the skin; format: in vitro ADME; conditions: 4 hours at 37° C.; for amount of γ-tocopherol in the skin: 0.50 (mass %) in Dulbecco's MEM medium, HPLC, not added: 10
# [3] = system: keratinocytes of normal human epidermis; conditions: final concentration 1 mM, 37° C. for 2 hours; not added: lower than detection limit
# Procedure: The cells were harvested and spalled by freeze-thawing method. To this cell spall solution, 1), 2) or 3) was added to have a final concentration of 1 mM. The resulting solution was kept at 37° C. for 2 hours and then the amount of α-tocopherol liberated in the reaction solution was measured.
amount of α-tocopherol in the skin [1],change of the α-tocopherol amount in the treated skin ([1]; 0.50 in medium),amount of γ-tocopherol in the skin [2],change of the γ-tocopherol amount in the treated skin ([2]; 0.50 in medium),amount of α-tocopherol liberated in the reaction solution [3],SMILES
24 nmol/g of skin,significant increase,–,–,–,Cc1c(C)c2c(c(C)c1OC(=O)CN)CCC(C)(CCCC(C)CCCC(C)CCCC(C)C)O2.Cl (stereo not shown)
–,–,24 nmol/g of skin,significant increase,–,Cc1c(OC(=O)CN)cc2c(c1C)OC(C)(CCCC(C)CCCC(C)CCCC(C)C)CC2.Cl (stereo not shown)
11 nmol/g of skin,–,–,–,0.5 nmol/ml of cell suspension,"CC(=O)Oc1c(C)c(C)c2c(c1C)CCC(C)(CCC[C@H](C)CCC[C@H](C)CCCC(C)C)O2 (stereo partly drawn) [α-Tocopherol acetate, reference compound]"
–,–,11 nmol/g of skin,–,–,"CC(=O)Oc1cc2c(c(C)c1C)OC(C)(CCCC(C)CCCC(C)CCCC(C)C)CC2 (stereo not shown) [γ-Tocopherol acetate, reference compound]"

# Source: US20050065206A1, “Skin preparation comprising a tocopherol derivative for external application” (priority 2001, published 2005)
